Results on 3 molecules are retold here after patent publication US8367695B2, “Condensed tetrahydroquinoline derivative and use thereof for medical purposes” (Mitsubishi Tanabe Pharma Corporation, priority 2007, dated 2013).

The target in this assay is T1, Glucocorticoid Receptor (GR), CHO-GRE-Luc #35 cells (Cricetulus griseus, UniProt A0A9J7F8I2).
T1 sequence (A0A9J7F8I2 1-774): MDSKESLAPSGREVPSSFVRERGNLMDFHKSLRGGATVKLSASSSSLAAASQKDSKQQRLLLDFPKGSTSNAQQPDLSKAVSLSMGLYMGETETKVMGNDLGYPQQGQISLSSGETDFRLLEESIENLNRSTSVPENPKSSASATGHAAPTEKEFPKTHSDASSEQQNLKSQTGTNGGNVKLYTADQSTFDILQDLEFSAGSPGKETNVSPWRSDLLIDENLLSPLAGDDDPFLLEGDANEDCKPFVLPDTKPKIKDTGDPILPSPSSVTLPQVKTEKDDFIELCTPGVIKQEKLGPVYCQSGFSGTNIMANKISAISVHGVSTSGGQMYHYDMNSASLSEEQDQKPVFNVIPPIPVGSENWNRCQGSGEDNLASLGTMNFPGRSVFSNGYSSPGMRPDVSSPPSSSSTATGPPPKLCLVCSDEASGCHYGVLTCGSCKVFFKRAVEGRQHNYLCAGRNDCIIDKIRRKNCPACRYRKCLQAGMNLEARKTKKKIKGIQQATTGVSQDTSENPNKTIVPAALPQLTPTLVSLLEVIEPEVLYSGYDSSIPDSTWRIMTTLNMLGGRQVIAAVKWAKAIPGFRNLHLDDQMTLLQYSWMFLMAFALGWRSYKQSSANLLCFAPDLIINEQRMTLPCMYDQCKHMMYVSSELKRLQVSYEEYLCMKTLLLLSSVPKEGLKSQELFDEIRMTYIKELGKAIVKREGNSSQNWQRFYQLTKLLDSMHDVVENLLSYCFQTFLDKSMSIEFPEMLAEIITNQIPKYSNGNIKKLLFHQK
In words: Glucocorticoid receptor function test using transgenic-recombinant cell (GRE-luciferase). It is filed as cell-based. Conditions: against GR stimulation with 10 nM dexamethasone, luciferase, about 6 hr; read-out: GR (IC50: nM). The procedure: Glucocorticoid Receptor Function Test Using Transgenic-Recombinant Cell
Transgenic-recombinant cell was prepared by our company (Yokohama, JP). In Hokkaido System Science Co., Ltd., a cis-element wherein two glucocorticoid responsive elements (GRE) present in the […] promoter region of mouse were connected in tandem was produced on order from synthetic DNA. The gene was incorporated into a plasmid vector having a gene encoding luciferase enzyme. The plasmid was incorporated into CHO-K1 cell to give a transfectant. The expression cell (CHO-GRE-Luc #35) produces luciferase instead of the object protein under regulation of a transcription region involved in the expression of the object protein. That is, using the cell, a substance that controls production of the object protein can be screened for by replacing the substance with the luciferase activity. Fetal Bovine Serum (FBS), L-glutamine, penicillin-streptomycin solution, PBS(−), trypsin-EDTA solution, Opti-MEM medium and G418 were obtained from GIBCO (Auckland, N.Z.). A 10 cm dish and DMEM:HAM′S F12 medium were obtained from IWAKI (Chiba, JP). A 96 well white plate was obtained from Corning (Corning, N.Y.). Bright-Glo was obtained from Promega (Madison, US). Dexamethasone was obtained from Sigma Chemicals (St. Louis, Mo.).
CHO-GRE-Luc #35 cells were cultured for several days in a 10 cm dish in a medium (10% FBS/DMEM:HAM'S F12/2.5 mM L-glutamine/50 U/mL penicillin/25 μg/mL streptomycin/500 μg/mL G418). Sub-confluent cells were washed with a suitable amount of PBS(−), 1 ml of Trypsin-EDTA was added and the cells were stood still in a CO2 incubator at 37° C. for 3 min. A 10-fold amount of Opti-MEM medium was added to give a suspension, which was placed in a centrifugal tube and centrifuged (25° C., 1,000 rpm, 5 min). The supernatant was removed, and the cells were suspended in 5 ml of Opti-MEM medium and counted.
Storage solutions (5-20 mM) of the compound were prepared with DMSO. The storage solutions were diluted with DMSO to 1 mM, and further diluted 100-fold with distilled water or Opti-MEM medium to give solutions. The preparations were diluted with 1% DMSO solution to each concentration. As GR agonist, 10 nM dexamethasone was used. 0.2% DMSO was present at the time of the function assay.
The prepared compound solutions (evaluation compound solution or 1% DMSO solution 10 μL+dexamethasone or 1% DMSO solution 10 μL) were added to the plate. After the addition, the place was stood still in a CO2 incubator at 37° C. for about 6 hr. After the reaction, Bright-Glo was added at 20 μL/well, and the mixture was gently shaken and measured by a microplate luminometer (Turner Designs Instrument).
The IC50 value (nM) of the evaluation compound against GR stimulation with dexamethasone was calculated using Prism 3.0 as an analysis software and assuming one-site competition.
`C=CCC1(C)C(=O)C(C)(C)Nc2c1cc(-c1c(C)noc1C)c1c2CCC1` (stereo not drawn) [Example 51, 4-allyl-6-(3,5-dimethylisoxazol-4-yl)-2,2,4-trimethyl-2,3,4,7,8,9-hexahydro-1H-cyclopenta[h]quinolin-3-one]: the 50% inhibitory concentration (IC50) – broadly, the midpoint of a concentration-inhibition curve – was 33 nM.
On to `CC1(C)Nc2c(cc(-c3cccc4nccn34)c3c2CCO3)C(C)(C)C1=O` [Example 88, 6-(imidazo[1,2-a]pyridin-5-yl)-2,2,4,4-tetramethyl-1,2,3,4,8,9-hexahydro-furo[2,3-h]quinolin-3-one], for which the half-maximal inhibitory concentration (IC50) came out at 66 nM.
To `CC1(C)Nc2c(cc(-c3ccnc4cc[nH]c34)c3c2CCC3)C(C)(C)C1=O` [Example 13, 2,2,4,4-tetramethyl-6-(1H-pyrrolo[3,2-b]pyridin-7-yl)-2,3,4,7,8,9-hexahydro-1H-cyclopenta[h]quinolin-3-one] belongs 31 nM.
